In patent US20160046618A1, “Cyclopropyl Fused Thiazin-2-Amine Compounds as Beta-Secretase Inhibitors and Methods of Use” (AMGEN INC., priority 2014, published 2016) one finds IC50 data, which are given here for 14 molecules.

For one assay, the target named is Recombinant Cat D (Homo sapiens (Human), UniProt P07339). The assay can be described thus: In vitro enzymatic Cathepsin D (Cat D) FRET assay. The format is biochemical. The following applies: Cathepsin D FRET enzyme assay; read-out: IC50 IP (μM) CatD. The method in brief:
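Recombinant Cat D expressed in CHO cells, assayed in 0.05 M citrate pH 3.5 with 5 mM CHAPS and 10% DMSO final. Reaction started with 20 nM FRET peptide substrate, incubated one hour, then stopped by Tris buffer to neutral pH; fluorescence read at ex 500/em 580 nm.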

Another assay concerns the target human recombinant BACE1 (Homo sapiens (Human), UniProt P56817). Description: In vitro enzymatic BACE1 FRET assay. The class given is biochemical. The note with it: BACE1 FRET enzyme assay; read-out: IC50 IP (μM) BACE1 enzyme. The method in brief: (§1)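 Fluorescence from cleavage of a quenched peptide spanning the BACE site (50 nM) was read at 488 nm excitation, 590 nm emission. Purified enzyme (Ni-NTA) and compound reacted for one hour before a Tris stop shifted pH to neutral.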

Assay [1] relates to Aβ40 in conditioned medium of cells stably expressing Amyloid Precursor Protein (APP). Description: In vitro BACE-1 cell-based assay (Aβ40 sandwich ELISA). The note with it: BACE1 cell-based assay; read-out: IC50 IP (μM) BACE1 cell. The method in brief:
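Aβ40 in supernatants measured by time-resolved fluorescence sandwich ELISA, with pAb40 as capture and biotin-6E10 as detector antibody, each incubated at 4 °C.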
In general terms: An ELISA detects its analyte on a solid surface through an enzyme-linked reagent.

The next assay addresses human recombinant BACE2 (Homo sapiens (Human), UniProt Q9Y5Z0). The assay can be described thus: In vitro enzymatic BACE2 FRET assay. The format is biochemical. The following applies: BACE2 FRET enzyme assay; read-out: IC50 IP (μM) BACE2 enzyme. The method in brief:
as §1

Sequence of human recombinant BACE2 (Q9Y5Z0 63-518): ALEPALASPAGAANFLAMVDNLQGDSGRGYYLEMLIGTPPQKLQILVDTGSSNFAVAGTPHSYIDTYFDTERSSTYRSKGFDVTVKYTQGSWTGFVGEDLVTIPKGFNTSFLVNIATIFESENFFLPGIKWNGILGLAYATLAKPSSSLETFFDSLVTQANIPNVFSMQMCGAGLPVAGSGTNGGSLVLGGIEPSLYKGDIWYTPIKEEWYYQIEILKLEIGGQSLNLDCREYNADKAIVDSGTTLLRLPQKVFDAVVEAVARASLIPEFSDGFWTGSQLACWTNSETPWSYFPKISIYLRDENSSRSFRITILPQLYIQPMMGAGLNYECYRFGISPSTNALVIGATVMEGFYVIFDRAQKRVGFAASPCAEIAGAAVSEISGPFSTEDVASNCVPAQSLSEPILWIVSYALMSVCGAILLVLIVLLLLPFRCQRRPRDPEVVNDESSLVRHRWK
Sequence of Recombinant Cat D (P07339 65-412): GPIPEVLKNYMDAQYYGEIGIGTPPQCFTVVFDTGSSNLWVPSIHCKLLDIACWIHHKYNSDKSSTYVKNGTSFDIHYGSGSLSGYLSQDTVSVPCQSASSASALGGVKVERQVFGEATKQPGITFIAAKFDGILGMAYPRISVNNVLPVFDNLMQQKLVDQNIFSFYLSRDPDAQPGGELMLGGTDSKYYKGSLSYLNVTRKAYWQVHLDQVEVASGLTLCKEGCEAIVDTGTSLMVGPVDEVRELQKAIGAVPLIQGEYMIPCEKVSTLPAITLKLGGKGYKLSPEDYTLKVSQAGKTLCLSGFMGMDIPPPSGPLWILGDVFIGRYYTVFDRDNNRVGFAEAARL
Sequence of human recombinant BACE1 (P56817 46-501): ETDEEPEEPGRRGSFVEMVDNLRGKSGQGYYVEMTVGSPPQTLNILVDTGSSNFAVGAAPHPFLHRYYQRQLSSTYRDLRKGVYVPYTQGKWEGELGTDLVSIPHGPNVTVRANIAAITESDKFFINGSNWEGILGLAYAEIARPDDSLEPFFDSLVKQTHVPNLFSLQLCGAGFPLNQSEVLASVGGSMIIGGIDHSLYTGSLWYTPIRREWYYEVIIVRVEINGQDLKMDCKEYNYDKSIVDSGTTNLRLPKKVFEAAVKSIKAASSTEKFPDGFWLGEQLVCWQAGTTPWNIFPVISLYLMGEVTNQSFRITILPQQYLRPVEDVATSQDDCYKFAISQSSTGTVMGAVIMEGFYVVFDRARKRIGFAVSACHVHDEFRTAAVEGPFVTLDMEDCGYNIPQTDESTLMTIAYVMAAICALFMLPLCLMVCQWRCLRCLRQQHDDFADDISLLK

The term IC50 denotes the concentration that gives 50% inhibition. Turning to `C#CCOc1cnc(C(=O)Nc2cc(F)c(F)c([C@@]3(C)N=C(N)S[C@H]4C[C@H]43)c2)c(C)n1` [Example 77, N-(3-((1S,5S,6S)-3-amino-5-methyl-2-thia-4-azabicyclo[4.1.0]hept-3-en-5-yl)-4,5-difluorophenyl)-3-methyl-5-(2-propyn-1-yloxy)-2-pyrazinecarboxamide], the IC50 at Recombinant Cat D was 949 µM; at human recombinant BACE1, 0.0047 µM; in assay [1] it was 0.0217 µM; at human recombinant BACE2, 0.0461 µM.
`Cc1cc(Cl)cnc1C(=O)Nc1cc(F)c(F)c([C@@]2(CF)N=C(N)S[C@H]3C[C@H]32)c1` [Example 78, N-(3-((1S,5S,6S)-3-amino-5-(fluoromethyl)-2-thia-4-azabicyclo[4.1.0]hept-3-en-5-yl)-4,5-difluorophenyl)-5-chloro-3-methyl-2-pyridinecarboxamide]: the IC50 at Recombinant Cat D stood at 627 µM; on human recombinant BACE1, 0.00464 µM; in assay [1], 0.0917 µM; on human recombinant BACE2 it was 0.00126 µM.
As to `Cc1nc(OCC(F)(F)F)cnc1C(=O)Nc1ccc(F)c([C@@]2(CF)N=C(N)S[C@@]3(CO)C[C@H]32)c1` [Example 79, N-(3-((1S,5S,6S)-3-amino-5-(fluoromethyl)-1-(hydroxymethyl)-2-thia-4-azabicyclo[4.1.0]hept-3-en-5-yl)-4-fluorophenyl)-3-methyl-5-(2,2,2-trifluoroethoxy)-2-pyrazinecarboxamide], the IC50 is over 400 µM at Recombinant Cat D, 0.00489 µM at human recombinant BACE1, 0.0284 µM in assay [1] and 0.143 µM at human recombinant BACE2.
Taken in the same sequence, the figures for `N#Cc1cnc2c(Nc3ccc(F)c([C@@]4(CF)N=C(N)S[C@@]5(CO)C[C@H]54)c3)ncnc2c1` [Example 80, 4-((3-((1S,5S,6S)-3-amino-5-(fluoromethyl)-1-(hydroxymethyl)-2-thia-4-azabicyclo[4.1.0]hept-3-en-5-yl)-4-fluorophenyl)amino)pyrido[3,2-d]pyrimidine-7-carbonitrile] were over 400 µM, 0.00913 µM, 0.00851 µM and 0.0251 µM.
In the same order, the values of `COc1cnc(C(=O)Nc2cc(F)c(F)c([C@@]3(CF)N=C(N)S[C@H]4C[C@H]43)c2)c(C)c1` [Example 81, N-(3-((1S,5S,6S)-3-amino-5-(fluoromethyl)-2-thia-4-azabicyclo[4.1.0]hept-3-en-5-yl)-4,5-difluorophenyl)-5-methoxy-3-methyl-2-pyridinecarboxamide] are 1390 µM, 0.0219 µM, 0.047 µM and 0.0116 µM.
In the same order, the values of `C#CCOc1cnc(C(=O)Nc2cc(F)c(F)c([C@@]3(CF)N=C(N)S[C@@]4(CO)C[C@H]43)c2)cn1` [Example 83, N-(3-((1S,5S,6S)-3-amino-5-(fluoromethyl)-1-(hydroxymethyl)-2-thia-4-azabicyclo[4.1.0]hept-3-en-5-yl)-4,5-difluorophenyl)-5-(2-propyn-1-yloxy)-2-pyrazinecarboxamide] are 105 µM, 0.00046 µM, 0.00092 µM and 0.0138 µM.
For `CC#CCOc1cnc(C(=O)Nc2cc(F)c(F)c([C@@]3(C)N=C(N)S[C@@]4(CO)C[C@H]43)c2)c(C)c1` [Example 85, N-(3-((1S,5S,6S)-3-amino-1-(hydroxymethyl)-5-methyl-2-thia-4-azabicyclo[4.1.0]hept-3-en-5-yl)-4,5-difluorophenyl)-5-(2-butyn-1-yloxy)-3-methyl-2-pyridinecarboxamide], the IC50 is 1550 µM at Recombinant Cat D, 0.00062 µM at human recombinant BACE1, 0.00216 µM in assay [1] and 0.0435 µM at human recombinant BACE2.
Taken in the same sequence, the figures for `Cc1cc(OC(F)F)cnc1C(=O)Nc1cc(F)c(F)c([C@@]2(CF)N=C(N)S[C@H]3C[C@H]32)c1` [Example 86, N-(3-((1S,5S,6S)-3-amino-5-(fluoromethyl)-2-thia-4-azabicyclo[4.1.0]hept-3-en-5-yl)-4,5-difluorophenyl)-5-(difluoromethoxy)-3-methyl-2-pyridinecarboxamide] were 715 µM, 0.00763 µM, 0.0501 µM and 0.0206 µM.
Taken in the same sequence, the figures for `COc1cnc2c(Nc3cc(F)c(F)c([C@@]4(C)N=C(N)S[C@@]5(CO)C[C@H]54)c3)nccc2c1` [Example 89, ((1S,5S,6S)-3-amino-5-(2,3-difluoro-5-((3-methoxy-1,7-naphthyridin-8-yl)amino)phenyl)-5-methyl-2-thia-4-azabicyclo[4.1.0]hept-3-en-1-yl)methanol] were over 400 µM, 0.0228 µM, 0.0198 µM and 0.0364 µM.
Take `COC[C@@]12C[C@@H]1[C@@](CF)(c1cc(Nc3nccc4cc(C#N)cnc34)cc(F)c1F)N=C(N)S2` [Example 90, 8-((3-((1R,5S,6R)-3-amino-5-(fluoromethyl)-1-(methoxymethyl)-2-thia-4-azabicyclo[4.1.0]hept-3-en-5-yl)-4,5-difluorophenyl)amino)-1,7-naphthyridine-3-carbonitrile]: the IC50 on Recombinant Cat D was 34.1 µM; on human recombinant BACE1 it was 0.00682 µM; in assay [1] it was 0.128 µM; at human recombinant BACE2, 0.0112 µM.
As to `COc1cnc2c(Nc3cc(F)c(F)c([C@@]4(C)N=C(N)S[C@@]5(CO)C[C@H]54)c3)ncc(F)c2c1` [Example 91, ((1S,5S,6S)-3-amino-5-(2,3-difluoro-5-((5-fluoro-3-methoxy-1,7-naphthyridin-8-yl)amino)phenyl)-5-methyl-2-thia-4-azabicyclo[4.1.0]hept-3-en-1-yl)methanol], the IC50 is 1210 µM at Recombinant Cat D, 0.00524 µM on human recombinant BACE1, 0.0256 µM in assay [1] and 0.0111 µM at human recombinant BACE2.
In the same order, the values of `C[C@]1(c2cc(Nc3ncnc4cc(Cl)cnc34)cc(F)c2F)N=C(N)S[C@@]2(CO)C[C@H]21` [Example 92, ((1S,5S,6S)-3-amino-5-(5-((7-chloropyrido[3,2-d]pyrimidin-4-yl)amino)-2,3-difluorophenyl)-5-methyl-2-thia-4-azabicyclo[4.1.0]hept-3-en-1-yl)methanol] are 414 µM, 0.0052 µM, 0.0102 µM and 0.00373 µM.
Taken in the same sequence, the figures for `COc1cnc2c(Nc3cc(F)c(F)c([C@@]4(C)N=C(N)S[C@@]5(CO)C[C@H]54)c3)nccc2n1` [Example 93, ((1S,5S,6S)-3-Amino-5-(2,3-difluoro-5-((2-methoxypyrido[3,4-b]pyrazin-5-yl)amino)phenyl)-5-methyl-2-thia-4-azabicyclo[4.1.0]hept-3-en-1-yl)methanol] were 1380 µM, 0.01 µM, 0.0108 µM and 0.0342 µM.
Regarding `Cc1cc(C#N)cnc1C(=O)Nc1cc(F)c(F)c([C@@]2(C)N=C(N)S[C@@]3(C(F)F)C[C@@H]23)c1` [Example 94, N-(3-((1S,5S,6S)-3-amino-1-(difluoromethyl)-5-methyl-2-thia-4-azabicyclo[4.1.0]hept-3-en-5-yl)-4,5-difluorophenyl)-5-cyano-3-methylpicolinamide], the IC50 at Recombinant Cat D was 559 µM; on human recombinant BACE1 it was 0.00053 µM; in assay [1], 0.00304 µM; at human recombinant BACE2 it was under 0.00203 µM.
